We go through twelve molecules from patent US5587459A, “Immunoconjugates comprising tyrosine kinase inhibitors” (Regents of the University of Minnesota, priority 1994, dated 1996).

Data set [1] deals with NALM-6 cells (human B-lineage leukemia). Briefly: SCID mouse model of human B-lineage leukemia. To be noted: SCID mice inoculated with NALM-6 cells; schedule of each treatment group as in Table 6. The class given is in vivo. On the procedure:
(§1) The pharmacokinetic features of B43-GEN was evaluated in a SCID mouse model with human B-lineage leukemia as follows. SCID mice challenged with NALM-6 cells were treated with either 25 μg/mouse=168 pmols/mouse (>10-foldlower than the MTD) or 50 μg/mouse=335 pmols/mouse (>5-fold lower than the MTD). All control mice were treated with unconjugated GEN (10 μg/mouse=37 nmols/mouse), unconjugated B43 antibody (50 μg/mouse=335pmols/mouse), TXU(anti-CD7)-GEN control immunoconjugate (50 μg/mouse=335 pmols/mouse), or PBS.
All control mice treated with unconjugated GEN, unconjugated B43 antibody, TXU(anti-CD7)-GEN control immunoconjugate, or PBS died of disseminated human B-lineage leukemia at 24 to 61 days after inoculation (FIG. 8). […] These long-term surviving mice were electively killed at 142 days in order to examine their burden of human leukemia cells.

Data set [2] can be described thus: in vivo. The class given is in vivo, SCID mice. The conditions noted are these: Minimal Leukemia Burden. How it is done:
Lines represent two-compartment model simulations, symbols depict measured concentrations.
as §1

Data set [3] concerns RAMOS cells (human Burkitt's lymphoma). Briefly: SCID mouse model of human B-lineage lymphoma. Type of data set: in vivo, SCID mice. To be noted: 5×10^6 RAMOS cells; one value pooled over all control groups incl. PBS. On the procedure: Control mice were treated with unconjugated GEN (10 μg/mouse=37 nmols/mouse), unconjugated B43 monoclonal antibody (50 μg/mouse=335 pmols/mouse), TXU(anti-CD7)-GEN control immunoconjugate (50 μg/mouse=335 pmols/mouse), or PBS. For comparison, some mice were treated with B43-pokeweed antiviral protein (PAP) immunotoxin (total=25 μg/mouse), which is an active anti-leukemia agent. Uckun et al., J. Exp. Med., 163, 347 (1986). Survival of the mice was monitored by daily observation and event times were measured from the day of inoculation of lymphoma cells to the day of death. The probability of event-free survival was determined and event-free interval curves were generated using the Kaplan-Meier product limit method as described by Uckun et al. New Engl. J. Med., 329, 1296 (1993).

The next data set deals with RAMOS cells. Briefly: Apoptosis assays in RAMOS cells (morphology, DNA flow cytometry, DNA fragmentation). Type of data set: cell-based, human. The source says: DNA was then electrophoresed through a 1% agarose gel and visualized by UV light after staining with ethidium bromide.
Data set [4] relates to tyrosine phosphorylation of abundant protein substrates in NALM-6 cells. Briefly: Antiphosphotyrosine immunoblotting, NALM-6 cells. The class given is cell-based, human. The conditions noted are these: immunoconjugate nanomolar, unconjugated GEN micromolar.
Data set [5] is described as follows: in vivo. To be noted: Minimal Leukemia Burden; for Kp: mouse, in vivo, iv. Set-up: species or system SCID mice. How it is done:
FIG. 7[C] is a depiction of the plasma or tissue concentrations vs. time curves after i.v. injection of 58 pmol GEN (Δ) or BP43-GEN (o,) into SCID mice with end stage leukemia (dashed lines) or no leukemia (solid lines). Lines represent simulations from the physiological pharmacokinetic model, symbols depict measured concentrations.
as §1
This hypothesis is supported by measurement of higher concentrations of the immunoconjugate in tissues of SCID mice with end-stage leukemia, when compared to healthy SCID mice which have not been inoculated with leukemia cells (FIG. 7C). The spleen, liver, and lungs had the highest tissue-to-plasma ratio, with the tissue distribution ratio increasing approximately 2-fold in spleen and liver of mice with end-stage leukemia (Table 5). Although tissue distribution of the immunoconjugate into the femur was low in mice with a minimal leukemia burden, it increased 3-fold in mice with end-stage leukemia, reflecting binding of the immunoconjugate to CD19 positive human B-lineage leukemia cells infiltrating bone marrow.

Data set [6] addresses T1, CD19-associated LYN kinase (Homo sapiens, UniProt P07948).
T1 construct: LYN kinase immunoprecipitated from NALM-6 cells; endogenous in cells; host or cells: NALM-6
As to the kind of experiment: Immune complex kinase assay, LYN in treated NALM-6 cells. The class given is cell-based. To be noted: NALM-6 cells treated 4 hours; immunoconjugate nanomolar, unconjugated GEN micromolar. How it is done:
Immune complex kinase assays were performed using acid-denatured rabbit enolase as an exogenous PTK substrate as previously described by Uckun et al. in J. Biol. Chem., 268, 21172 (1993).
Controls were treated with unconjugated GEN, TXU(anti-CD7)-GEN immunoconjugate directed against the CD7/Tp41 T-cell surface antigen, unconjugated and unmodified B43 antibody, or SANPAH-modified unconjugated B43 antibody.

The target in data set [7] is T2, human topoisomerase II enzyme (Homo sapiens, UniProt P11388).
T2 construct: purchased Topogen, Inc., Columbus, Ohio
Briefly: Topoisomerase II Drug Screening kit (pRYG relaxation/cleavage). Type of data set: biochemical. The conditions noted are these: B43-GEN at micromolar concentrations. The source says: The kit is based upon formation of DNA cleavage products after treatment of a supercoiled DNA substrate (pRYG) containing a single high affinity topoisomerase II recognition and cleavage site.

Like-named read-outs stand apart in the source and are kept apart here.

T2 sequence (P11388 whole entry): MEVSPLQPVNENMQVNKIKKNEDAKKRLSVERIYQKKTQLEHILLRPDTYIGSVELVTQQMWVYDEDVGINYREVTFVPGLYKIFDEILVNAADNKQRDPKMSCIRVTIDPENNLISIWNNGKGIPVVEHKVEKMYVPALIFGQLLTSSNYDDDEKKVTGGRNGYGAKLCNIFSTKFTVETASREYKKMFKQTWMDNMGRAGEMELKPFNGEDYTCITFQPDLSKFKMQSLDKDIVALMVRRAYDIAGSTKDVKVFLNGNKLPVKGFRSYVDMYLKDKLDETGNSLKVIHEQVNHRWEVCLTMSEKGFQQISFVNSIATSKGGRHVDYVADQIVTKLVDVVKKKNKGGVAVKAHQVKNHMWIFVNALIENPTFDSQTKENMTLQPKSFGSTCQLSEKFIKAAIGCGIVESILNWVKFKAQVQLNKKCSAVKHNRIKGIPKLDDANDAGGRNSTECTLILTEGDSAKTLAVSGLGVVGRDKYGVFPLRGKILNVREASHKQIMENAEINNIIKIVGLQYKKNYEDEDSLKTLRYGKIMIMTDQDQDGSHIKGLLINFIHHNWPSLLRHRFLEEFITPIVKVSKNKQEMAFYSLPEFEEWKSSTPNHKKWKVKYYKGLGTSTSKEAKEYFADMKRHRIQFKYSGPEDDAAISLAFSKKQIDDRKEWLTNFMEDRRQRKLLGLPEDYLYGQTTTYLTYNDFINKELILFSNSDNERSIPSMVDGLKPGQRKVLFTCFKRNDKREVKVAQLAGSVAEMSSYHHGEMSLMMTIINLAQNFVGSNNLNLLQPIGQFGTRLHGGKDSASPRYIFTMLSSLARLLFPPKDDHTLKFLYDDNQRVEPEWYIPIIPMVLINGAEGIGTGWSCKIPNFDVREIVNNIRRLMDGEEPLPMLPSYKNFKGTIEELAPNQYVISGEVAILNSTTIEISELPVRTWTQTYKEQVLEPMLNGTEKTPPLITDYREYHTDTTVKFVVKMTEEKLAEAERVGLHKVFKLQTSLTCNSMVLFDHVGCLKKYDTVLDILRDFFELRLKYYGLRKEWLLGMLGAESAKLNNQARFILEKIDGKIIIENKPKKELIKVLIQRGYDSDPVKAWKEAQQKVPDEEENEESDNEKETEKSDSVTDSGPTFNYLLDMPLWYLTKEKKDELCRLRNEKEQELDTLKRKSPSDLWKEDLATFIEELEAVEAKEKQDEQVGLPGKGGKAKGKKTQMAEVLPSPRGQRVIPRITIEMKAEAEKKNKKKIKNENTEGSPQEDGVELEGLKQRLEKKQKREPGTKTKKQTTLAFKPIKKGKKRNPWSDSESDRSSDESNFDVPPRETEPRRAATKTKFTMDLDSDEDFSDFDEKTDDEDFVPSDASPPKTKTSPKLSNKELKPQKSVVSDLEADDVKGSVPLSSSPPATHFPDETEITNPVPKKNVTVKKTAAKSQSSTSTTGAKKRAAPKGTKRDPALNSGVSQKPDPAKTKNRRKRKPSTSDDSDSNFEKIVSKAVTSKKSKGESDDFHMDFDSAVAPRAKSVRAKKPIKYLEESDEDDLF
T1 sequence (P07948 2-512 limits assumed): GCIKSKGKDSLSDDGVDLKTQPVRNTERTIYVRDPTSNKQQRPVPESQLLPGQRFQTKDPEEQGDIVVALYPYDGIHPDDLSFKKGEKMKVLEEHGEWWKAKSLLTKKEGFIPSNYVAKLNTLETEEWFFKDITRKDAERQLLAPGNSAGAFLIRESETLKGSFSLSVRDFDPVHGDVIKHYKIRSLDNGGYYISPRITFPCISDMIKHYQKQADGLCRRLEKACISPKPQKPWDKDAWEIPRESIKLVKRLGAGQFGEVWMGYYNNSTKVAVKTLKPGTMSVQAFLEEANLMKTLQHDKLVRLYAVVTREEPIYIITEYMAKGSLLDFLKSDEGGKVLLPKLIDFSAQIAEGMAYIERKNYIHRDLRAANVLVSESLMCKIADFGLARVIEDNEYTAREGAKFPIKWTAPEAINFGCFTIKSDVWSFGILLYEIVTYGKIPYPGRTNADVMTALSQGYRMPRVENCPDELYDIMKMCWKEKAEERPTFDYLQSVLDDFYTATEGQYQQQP

Turning to `O=NN(CCCl)C(=O)NCCCl` [Carmustine], in data set [1], the “EFS (%) 60 days” value is 20%, the “EFS (%) 120 days” value came out at 0% and the “Median EFS” value was 54 days.

As for `O=P1(N(CCCl)CCCl)NCCCO1` (stereo not drawn) [Cyclophosphamide], in data set [1], the “EFS (%) 60 days” value was 40%, the “EFS (%) 120 days” value worked out at 10% and the “Median EFS” value was 54 days.

Take `Nc1ccn([C@@H]2O[C@H](CO)[C@@H](O)[C@@H]2O)c(=O)n1` [Cytarabine]: in data set [1], the “EFS (%) 60 days” value is 20%, the “EFS (%) 120 days” value stood at 0% and the “Median EFS” value worked out at 57 days.

As to `COc1cccc2c1C(=O)c1c(O)c3c(c(O)c1C2=O)C[C@@](O)(C(=O)CO)C[C@@H]3O[C@H]1C[C@H](N)[C@H](O)[C@H](C)O1` [Doxorubicin], in data set [1], the “EFS (%) 60 days” value turned out to be 20%, the “EFS (%) 120 days” value was 0% and the “Median EFS” value is 49 days.

Take `COc1cc([C@@H]2c3cc4c(cc3[C@@H](O[C@@H]3O[C@@H]5CO[C@@H](C)O[C@H]5[C@H](O)[C@H]3O)[C@H]3COC(=O)[C@H]23)OCO4)cc(OC)c1O` [Etoposide]: in data set [1], the “EFS (%) 60 days” value is on record as 60%, the “EFS (%) 120 days” value was found to be 30% and the “Median EFS” value stood at 66 days.

Turning to `O=c1c(-c2ccc(O)cc2)coc2cc(O)cc(O)c12` [GEN, 5,7,4'-trihydroxyisoflavone], the “Cl (systemic clearance from plasma)” value in the data set “in vivo [2]” came out at 49.7 µL/h/g. Besides, in “in vivo [2]”, the “Kcp (distribution rate constant from central to peripheral compartment)” value was 1.341 h⁻¹. The “Kpc (distribution rate constant from peripheral to central compartment)” value in “in vivo [2]” turned out to be 0.549 h⁻¹. Further, the “Vc (central volume of distribution)” value in the data set “in vivo [2]” is 87.0 µL/g. For the same molecule, in the data set “in vivo [2]” (mouse, in vivo, iv, read-out: Ke (elimination rate constant) (converted)), the k el is 0.000159 s⁻¹. In the data set “in vivo [2]” (mouse, in vivo, iv, read-out: T1/2β (elimination halflife) (converted)), the half-life is 5.1 h. For the same molecule, the Median event-free survival in data set [3] was 48.0 days. The “DNA fragmentation / apoptosis by agarose gel electrophoresis” value with RAMOS cells (RAMOS cells, 8-24 hours, immunoconjugates nanomolar, unconjugated GEN micromolar) is listed as “no fragmentation”. The “DNA fragmentation by the unconjugated moieties” value with RAMOS cells (high concentrations, FIG. 4B lower panel) is on record as “induced DNA fragmentation”. In data set [4], the “Tyrosine dephosphorylation of abundant protein substrates” value is “failed to affect”. Further, in the data set “in vivo [5]”, the “Clearance, Kidney” value turned out to be 18.7 µL/h/g. Besides, in “in vivo [5]”, the “Clearance, Liver” value is 40.9 µL/h/g. For the same molecule, the “Total Clearance” value in “in vivo [5]” worked out at 59.6 µL/h/g. The Kp in the data set “in vivo [5]” (read-out: Linear Binding Constant (R), Brain) was determined as 0.027; in the data set “in vivo [5]” (read-out: Linear Binding Constant (R), Heart) it was 0.335; in “in vivo [5]” (read-out: Linear Binding Constant (R), Kidney), 0.253; in the data set “in vivo [5]” (read-out: Linear Binding Constant (R), Liver), 0.5; in “in vivo [5]” (read-out: Linear Binding Constant (R), Lungs), 0.531; in the data set “in vivo [5]” (read-out: Linear Binding Constant (R), Muscle), 0.095. For the same molecule, the Kp was determined as 0.208 in the data set “in vivo [5]” (read-out: Linear Binding Constant (R), Skin); 0.04 in the data set “in vivo [5]” (read-out: Linear Binding Constant (R), Spleen); 1.11 in “in vivo [5]” (residual drug not accounted for by tissues studied, read-out: Linear Binding Constant (R), Rest of Body). For the same molecule, the “Inhibition of LYN kinase (autophosphorylation, enolase substrate phosphorylation)” value in data set [6] is recorded as “failed to affect”.

For `C[C@H]1C[C@@H]2[C@H](C(=O)C[C@@]3(C)[C@H]2CC[C@]3(O)C(=O)CO)[C@@]2(C)C=CC(=O)C=C12` [Methylprednisone], in data set [1], the “EFS (%) 60 days” value was 40%, the “EFS (%) 120 days” value worked out at 20% and the “Median EFS” value was 56 days.

Consider `CC(=O)O[C@H]1C(=O)[C@@]2(C)[C@H]([C@H](OC(=O)c3ccccc3)[C@]3(O)C[C@H](OC(=O)[C@H](O)[C@@H](NC(=O)c4ccccc4)c4ccccc4)C(C)=C1C3(C)C)[C@]1(OC(C)=O)CO[C@@H]1C[C@@H]2O` [Taxol], for which, in data set [1], the “EFS (%) 60 days” value was 0%, the “EFS (%) 120 days” value came to 0% and the “Median EFS” value was found to be 37 days.

For `CC[C@@]1(O)C(=O)OCc2c1cc1n(c2=O)Cc2cc3c(CN(C)C)c(O)ccc3nc2-1` [Topotecan], in data set [1], the “EFS (%) 60 days” value was found to be 18%, the “EFS (%) 120 days” value is reported as 0% and the “Median EFS” value worked out at 44 days.

As to `CC[C@]1(O)C[C@H]2CN(CCc3c([nH]c4ccccc34)[C@@](C(=O)OC)(c3cc4c(cc3OC)N(C=O)[C@H]3[C@@](O)(C(=O)OC)[C@H](OC(C)=O)[C@]5(CC)C=CCN6CC[C@]43[C@@H]65)C2)C1` [Vincristine], in data set [1], the “EFS (%) 60 days” value is listed as 0%, the “EFS (%) 120 days” value worked out at 0% and the “Median EFS” value worked out at 51 days.

`COc1cc([C@@H]2c3cc4c(cc3[C@@H](O[C@@H]3O[C@@H]5CO[C@@H](c6cccs6)O[C@H]5[C@H](O)[C@H]3O)[C@H]3COC(=O)[C@H]23)OCO4)cc(OC)c1O` [teniposide (VM-26), teniposide]: the “Inhibition of topoisomerase II (relaxation of supercoiled pRYG DNA)” value in data set [7] is listed as “impairs the ability of human topoisomerase II to relax the supercoiled DNA substrate”.

Take L-asparaginase: in data set [1], the “EFS (%) 60 days” value was determined as 0%, the “EFS (%) 120 days” value was 0% and the “Median EFS” value came out at 44 days.
